Laboratory results published in patent publication US5164196A (priority 1990, dated 1992).

Molecular target: crotoxin complex (1:1 complex of crotoxin A and crotoxin B) from Crotalus durissus terrificus venom (Crotalus durissus terrificus, UniProt P0CAS2)
Format: biochemical

Chain of crotoxin complex (1:1 complex of crotoxin A and crotoxin B) from Crotalus durissus terrificus venom (P0CAS2 whole entry, looked up, one chain of several): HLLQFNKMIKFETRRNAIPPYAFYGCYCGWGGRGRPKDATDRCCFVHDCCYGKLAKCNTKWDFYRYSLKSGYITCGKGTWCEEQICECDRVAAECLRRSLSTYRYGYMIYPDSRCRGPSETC

O=C(CBr)c1ccc(Br)cc1 [p-bromophenacylbromide]
reaction with p-bromophenacyl bromide: does not react
